Data as given in the NIST ThermoML archive (doi:10.1021/je2008445).
Numbers after ± are expanded uncertainties.

Legend:
[1] = refractive index (Na D-line) (dimensionless); conditions: 298.15 K; 101.33 kPa; Liquid; Standard Abbe refractometry
[2] = Liquid, Ebulliometric method (Recirculating still)

vapor or sublimation pressure ([2]; 372.73 K) [kPa] | SMILES | refractive index [1] | vapor or sublimation pressure ([2]; 350.23 K) [kPa]
101.33 ± 1.6 | C[Si](C)(C)O[Si](C)(C)C [hexamethyldisiloxane] | 1.3737 ± 0.0005 | –
– | CCOC(C)=O [ethyl acetate] | 1.3712 ± 0.0005 | 101.33 ± 1.6
